Assay results published in article doi:10.1101/2025.03.13.642871v2 (biorxiv, 2026).

How the values were obtained:
p300 = p300 (Homo sapiens, UniProt Q09472); experiment: cell-free H3K27 acetylation, immunoblot; format: biochemical
CREBBP = CREBBP (Homo sapiens, UniProt Q92793); experiment: cell-free H3K27 acetylation, immunoblot; format: biochemical
p300 bromodomain = target: T1, p300 bromodomain (Homo sapiens, UniProt Q09472); experiment: SPR, single-cycle kinetics, NTA chip; format: binding
T1 sequence (Q09472 1049-1156 limits assumed): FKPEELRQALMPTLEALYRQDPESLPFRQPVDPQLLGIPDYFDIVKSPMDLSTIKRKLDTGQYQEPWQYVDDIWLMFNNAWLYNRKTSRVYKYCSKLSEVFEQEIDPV

Sequence of CREBBP (Q92793 2-2442): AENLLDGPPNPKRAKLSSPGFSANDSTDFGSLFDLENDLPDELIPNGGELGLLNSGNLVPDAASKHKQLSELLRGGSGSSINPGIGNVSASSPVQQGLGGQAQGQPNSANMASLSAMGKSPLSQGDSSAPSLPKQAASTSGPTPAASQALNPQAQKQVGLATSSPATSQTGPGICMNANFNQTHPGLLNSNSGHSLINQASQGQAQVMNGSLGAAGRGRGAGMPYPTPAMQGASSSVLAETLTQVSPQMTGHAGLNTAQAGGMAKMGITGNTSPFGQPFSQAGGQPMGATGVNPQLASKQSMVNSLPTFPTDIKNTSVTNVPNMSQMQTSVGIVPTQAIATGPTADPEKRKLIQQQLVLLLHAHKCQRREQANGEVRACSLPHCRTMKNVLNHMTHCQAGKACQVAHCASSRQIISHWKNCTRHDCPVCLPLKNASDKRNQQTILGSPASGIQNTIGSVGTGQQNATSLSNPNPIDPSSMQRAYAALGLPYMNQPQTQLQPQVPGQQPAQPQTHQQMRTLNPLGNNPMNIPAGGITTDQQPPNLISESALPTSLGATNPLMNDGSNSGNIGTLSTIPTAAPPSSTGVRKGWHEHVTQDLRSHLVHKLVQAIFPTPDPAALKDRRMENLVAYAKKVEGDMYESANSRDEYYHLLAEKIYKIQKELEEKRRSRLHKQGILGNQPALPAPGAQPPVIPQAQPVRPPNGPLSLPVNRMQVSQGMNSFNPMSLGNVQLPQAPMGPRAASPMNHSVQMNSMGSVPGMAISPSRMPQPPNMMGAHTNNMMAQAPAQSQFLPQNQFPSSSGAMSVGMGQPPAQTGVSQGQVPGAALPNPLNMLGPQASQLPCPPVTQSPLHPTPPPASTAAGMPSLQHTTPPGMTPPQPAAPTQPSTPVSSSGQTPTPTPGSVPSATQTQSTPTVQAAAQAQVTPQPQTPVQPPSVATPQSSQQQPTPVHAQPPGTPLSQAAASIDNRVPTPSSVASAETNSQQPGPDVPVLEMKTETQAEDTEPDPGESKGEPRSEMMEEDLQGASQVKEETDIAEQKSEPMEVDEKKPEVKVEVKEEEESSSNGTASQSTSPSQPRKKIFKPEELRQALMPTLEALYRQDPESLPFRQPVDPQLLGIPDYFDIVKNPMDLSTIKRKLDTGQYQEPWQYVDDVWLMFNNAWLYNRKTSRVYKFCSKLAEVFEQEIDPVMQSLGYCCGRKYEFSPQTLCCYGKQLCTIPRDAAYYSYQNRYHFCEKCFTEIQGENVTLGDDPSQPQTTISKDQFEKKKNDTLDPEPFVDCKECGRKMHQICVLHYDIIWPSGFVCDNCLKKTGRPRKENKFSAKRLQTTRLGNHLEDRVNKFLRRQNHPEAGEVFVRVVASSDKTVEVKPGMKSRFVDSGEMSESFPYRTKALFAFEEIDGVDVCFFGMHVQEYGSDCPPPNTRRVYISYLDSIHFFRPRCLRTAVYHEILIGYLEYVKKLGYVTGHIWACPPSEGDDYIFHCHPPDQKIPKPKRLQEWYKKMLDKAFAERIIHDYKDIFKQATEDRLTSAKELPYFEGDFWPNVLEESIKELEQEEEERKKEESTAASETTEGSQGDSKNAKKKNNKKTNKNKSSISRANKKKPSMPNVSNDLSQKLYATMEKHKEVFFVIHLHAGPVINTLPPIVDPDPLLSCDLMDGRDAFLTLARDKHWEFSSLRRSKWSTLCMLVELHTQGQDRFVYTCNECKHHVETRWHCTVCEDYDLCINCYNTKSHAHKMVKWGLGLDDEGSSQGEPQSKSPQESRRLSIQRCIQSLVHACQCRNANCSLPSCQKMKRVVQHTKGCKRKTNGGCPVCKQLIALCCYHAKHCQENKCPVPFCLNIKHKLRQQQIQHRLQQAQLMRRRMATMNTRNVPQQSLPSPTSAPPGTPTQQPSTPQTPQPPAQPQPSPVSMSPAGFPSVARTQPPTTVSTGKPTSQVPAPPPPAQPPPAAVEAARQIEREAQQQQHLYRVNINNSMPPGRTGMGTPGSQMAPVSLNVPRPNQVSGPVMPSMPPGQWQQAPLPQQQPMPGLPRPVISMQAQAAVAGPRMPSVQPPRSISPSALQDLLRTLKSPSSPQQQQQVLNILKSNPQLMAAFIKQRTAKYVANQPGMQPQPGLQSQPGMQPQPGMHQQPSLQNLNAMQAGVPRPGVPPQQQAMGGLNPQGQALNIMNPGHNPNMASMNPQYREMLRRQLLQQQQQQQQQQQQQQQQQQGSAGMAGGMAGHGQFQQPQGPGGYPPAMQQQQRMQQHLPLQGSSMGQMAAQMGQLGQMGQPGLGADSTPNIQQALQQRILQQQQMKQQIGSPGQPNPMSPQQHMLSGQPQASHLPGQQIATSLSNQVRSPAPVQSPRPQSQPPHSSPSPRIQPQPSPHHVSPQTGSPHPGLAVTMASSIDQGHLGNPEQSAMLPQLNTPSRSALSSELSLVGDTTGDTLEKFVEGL
Sequence of p300 (Q09472 2-2414): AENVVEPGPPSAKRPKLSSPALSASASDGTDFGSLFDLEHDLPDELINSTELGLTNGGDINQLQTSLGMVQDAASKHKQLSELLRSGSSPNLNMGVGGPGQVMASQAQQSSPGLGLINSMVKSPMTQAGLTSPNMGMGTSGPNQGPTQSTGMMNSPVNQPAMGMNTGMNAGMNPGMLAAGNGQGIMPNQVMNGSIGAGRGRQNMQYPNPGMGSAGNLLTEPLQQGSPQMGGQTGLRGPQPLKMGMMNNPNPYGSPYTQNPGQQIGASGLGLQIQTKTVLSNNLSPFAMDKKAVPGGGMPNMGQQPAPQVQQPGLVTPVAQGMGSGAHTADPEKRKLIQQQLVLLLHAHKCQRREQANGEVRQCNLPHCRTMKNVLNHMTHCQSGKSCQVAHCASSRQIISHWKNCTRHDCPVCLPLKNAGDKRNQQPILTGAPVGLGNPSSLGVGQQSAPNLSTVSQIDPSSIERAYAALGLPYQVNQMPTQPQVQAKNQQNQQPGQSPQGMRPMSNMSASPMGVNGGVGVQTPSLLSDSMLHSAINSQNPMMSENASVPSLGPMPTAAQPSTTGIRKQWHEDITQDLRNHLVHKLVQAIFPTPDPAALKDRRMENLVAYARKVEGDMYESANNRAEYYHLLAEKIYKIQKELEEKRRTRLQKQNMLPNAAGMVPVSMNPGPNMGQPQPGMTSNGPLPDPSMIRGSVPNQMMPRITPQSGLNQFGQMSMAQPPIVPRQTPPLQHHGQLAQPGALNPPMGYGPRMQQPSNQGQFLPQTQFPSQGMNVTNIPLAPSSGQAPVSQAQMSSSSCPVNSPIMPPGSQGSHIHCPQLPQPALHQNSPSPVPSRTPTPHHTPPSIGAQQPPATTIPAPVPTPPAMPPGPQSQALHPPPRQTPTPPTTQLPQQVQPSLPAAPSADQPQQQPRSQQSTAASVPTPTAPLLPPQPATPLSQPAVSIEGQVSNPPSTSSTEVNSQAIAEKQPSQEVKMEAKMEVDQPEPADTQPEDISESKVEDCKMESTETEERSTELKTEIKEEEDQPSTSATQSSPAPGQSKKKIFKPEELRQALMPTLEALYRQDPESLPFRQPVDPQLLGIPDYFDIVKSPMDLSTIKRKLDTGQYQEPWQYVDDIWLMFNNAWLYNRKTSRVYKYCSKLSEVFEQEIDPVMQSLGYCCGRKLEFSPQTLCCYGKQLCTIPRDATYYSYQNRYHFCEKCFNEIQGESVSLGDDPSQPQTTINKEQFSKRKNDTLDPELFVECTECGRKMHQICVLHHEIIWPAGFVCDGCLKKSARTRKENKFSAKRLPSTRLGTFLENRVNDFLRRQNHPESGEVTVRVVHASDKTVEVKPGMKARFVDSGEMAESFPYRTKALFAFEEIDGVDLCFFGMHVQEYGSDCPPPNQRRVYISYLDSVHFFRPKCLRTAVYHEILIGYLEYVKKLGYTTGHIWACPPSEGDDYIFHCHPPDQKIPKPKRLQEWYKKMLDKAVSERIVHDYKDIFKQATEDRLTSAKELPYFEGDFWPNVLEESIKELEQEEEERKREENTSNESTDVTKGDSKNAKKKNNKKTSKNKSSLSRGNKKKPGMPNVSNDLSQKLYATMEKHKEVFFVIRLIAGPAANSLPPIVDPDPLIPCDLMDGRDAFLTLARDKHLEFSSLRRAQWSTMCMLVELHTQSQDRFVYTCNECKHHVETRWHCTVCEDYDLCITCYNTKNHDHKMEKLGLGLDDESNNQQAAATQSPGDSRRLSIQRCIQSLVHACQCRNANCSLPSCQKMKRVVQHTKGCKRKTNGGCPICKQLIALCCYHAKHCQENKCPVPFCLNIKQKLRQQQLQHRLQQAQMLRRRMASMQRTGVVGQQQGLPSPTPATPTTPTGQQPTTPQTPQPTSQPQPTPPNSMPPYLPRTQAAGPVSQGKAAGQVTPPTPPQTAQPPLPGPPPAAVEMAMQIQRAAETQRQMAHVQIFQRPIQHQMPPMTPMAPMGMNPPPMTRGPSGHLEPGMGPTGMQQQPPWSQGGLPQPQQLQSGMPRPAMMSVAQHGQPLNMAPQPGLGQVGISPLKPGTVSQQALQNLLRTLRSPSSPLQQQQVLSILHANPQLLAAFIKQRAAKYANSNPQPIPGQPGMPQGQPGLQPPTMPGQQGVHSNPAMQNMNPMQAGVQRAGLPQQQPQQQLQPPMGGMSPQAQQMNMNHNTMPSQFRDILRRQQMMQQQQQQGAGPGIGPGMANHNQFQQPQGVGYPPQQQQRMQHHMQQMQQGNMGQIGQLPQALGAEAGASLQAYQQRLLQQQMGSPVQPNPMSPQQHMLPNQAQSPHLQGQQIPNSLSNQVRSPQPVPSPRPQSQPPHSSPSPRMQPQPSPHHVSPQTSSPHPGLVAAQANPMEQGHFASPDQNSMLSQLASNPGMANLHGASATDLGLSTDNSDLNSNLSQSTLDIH

EC50 (p300): 4.32 µM | EC50 (CREBBP): 15.8 µM | Kd (p300 bromodomain): 4.42 µM
Compound: CCOc1cccc(OCCN(C)C)c1C(=O)Nc1ccc(Cl)c(C(F)(F)F)c1 [YF2]
